Source: paper PMC12165799, “Antimicrobial peptide developed with machine learning sequence optimization targets drug resistant Staphylococcus aureus in mice” (The Journal of Clinical Investigation, 2025)
≈ marks a conversion by molar mass, not a printed value.

Experiments:
[1] = tested on: S. aureus isolates; assay: microbe, parasite or virus in culture; details: Staphylococcus aureus
Procedure: 305 Minimal inhibitory concentration (MIC) assay
306 To determine the minimum concentration of peptide that inhibits the growth of bacteria,
307 termed as the minimal inhibitory concentration (MIC), we used the broth microdilution method
308 described by the Clinical and Laboratory Standards Institute (4). We made serial dilutions of 10×
309 concentrated peptides (10 µl) in duplicate in 96-well plates (Cat no. 3595, Corning, NY, USA).
310 We added 90 µl of logarithmic-phase bacteria at 1 × 10^6 CFU/ml (in TSB medium) to the peptides
311 and then incubated the plates at 37°C for 18 hours. We determined the MIC using OD600
312 measurements taken on a Spectra Max i3x spectrophotometer (Molecular Devices, CA, USA).

[2] = tested on: S. aureus MW2 membrane; assay: SYTOX-based cell membrane permeability assay; set-up: species or system Staphylococcus aureus; details: S. aureus MW2, 1 hour; CIT-8 4–32 μg/mL
Procedure: 484 min at room temperature in the dark based on a previously established protocol (8). We added 90
485 µl of the dye/bacteria mixture to 10 μl of serially diluted 10× peptide concentration in black, 96-
486 well plates (Cat. no. 3904, Corning, NY, USA) and incubated the plates for 1 hour at room
487 temperature. We measured the fluorescence with excitation and emission wavelengths of 485 nm
488 and 525 nm, respectively in endpoint assay mode using a SpectraMax i3x (Molecular Devices,
489 CA, USA) fluorescence reader.
490 Propidium iodide-based membrane permeability
491 We used a propidium iodide (Thermo Fisher Scientific, MA, USA) fluorescence-based
492 bacterial permeation assay to establish membrane-oriented interactions with the designed peptides
493 based on a previously established protocol (8). We prepared exponential phase S. aureus MW2
494 bacteria and diluted to OD600 = 0.4 in PBS. We added PI dye (final concentration = 2 µM) to the
495 bacteria in 1:10 serial dilutions in black, 96-well plates (Cat. no. 3904, Corning, NY, USA) and
496 incubated the plates for 1 hour at room temperature. We then measured the fluorescence with an
497 excitation wavelength of 584 nm and an emission wavelength of 620 nm in endpoint assay mode
498 using a SpectraMax i3x (Molecular Devices, CA, USA) fluorescence reader.
501 To determine the ATP leakage potential of the peptides, we employed a luciferase-based […]

[3] = tested on: S. aureus MW2 infected skin; assay: Histopathology of skin (H&E, Gram stain), prophylactic model; type: in vivo, mice; details: 2% w/w formulation, H&E and Gram stains
Text: 235 Supplemental Figure 13. Histopathology of vehicle and CIT-8 treated skin in the skin-abraded
236 prophylactic murine model infected with S. aureus MW2.
237 Panel A: Representative 10× images of H&E-stained murine skin sections from all n=32 animals
238 (n=8 per group). Scale bars: 0.05 mm. Panel B: Representative 40× images of Gram-stained murine
239 skin sections. Scale bars: 0.01 mm. White arrows (1-5) indicate key histopathological features; 1:
240 Disorganized epidermal layer with epidermal disruption; 2: Dense infiltration of
241 polymorphonuclear (PMN) and mononuclear (MN) cells in both the epidermis and dermis,
242 indicative of heightened inflammation; 3: More intact epidermis; 4: Reduced numbers of PMN
243 and MN cells; 5: Bacterial patches.
(1 picture or pasted object on this page, not shown here)

[4] = HPLC retention time on C18 reverse-phase column; type: physicochemical
Text: Table 1 Physical parameters and minimal inhibitory concentrations of citropin 1.1-derived peptides against S. aureus MW2 | column: rT^D (min)

Compound: CN[C@H](CC(C)C)C(=O)N[C@H]1C(=O)N[C@@H](CC(N)=O)C(=O)N[C@H]2C(=O)N[C@H]3C(=O)N[C@H](C(=O)N[C@H](C(=O)O)c4cc(O)cc(O)c4-c4cc3ccc4O)[C@H](O)c3ccc(c(Cl)c3)Oc3cc2cc(c3O[C@@H]2O[C@H](CO)[C@@H](O)[C@H](O)[C@H]2O[C@H]2C[C@](C)(N)[C@H](O)[C@H](C)O2)Oc2ccc(cc2Cl)[C@H]1O [Vancomycin, reference compound]
- MIC ([1]; MRSA, S. aureus JE2 (MRSA)): 1 µg/mL (≈ 0.69 µM)
- MIC ([1]; S. aureus BF1 (clinical isolate)): 0.5 µg/mL (≈ 0.345 µM)
- MIC ([1]; S. aureus BF2 (clinical isolate)): 2 µg/mL (≈ 1.38 µM)
- MIC ([1]; S. aureus BF3 (clinical isolate)): 1 µg/mL (≈ 0.69 µM)
- MIC ([1]; S. aureus BF4 (clinical isolate)): 2 µg/mL (≈ 1.38 µM)
- MIC ([1]; S. aureus BF5 (clinical isolate)): 1 µg/mL (≈ 0.69 µM)
- MIC ([1]; S. aureus BF6 (clinical isolate)): 1 µg/mL (≈ 0.69 µM)
- MIC ([1]; S. aureus BF7 (clinical isolate)): 1 µg/mL (≈ 0.69 µM)
- MIC ([1]; S. aureus BF8 (clinical isolate)): 2 µg/mL (≈ 1.38 µM)
- MIC ([1]; S. aureus BF9 (clinical isolate)): 0.5 µg/mL (≈ 0.345 µM)
- MIC ([1]; S. aureus BF10 (clinical isolate)): 2 µg/mL (≈ 1.38 µM)
- MIC ([1]; S. aureus BF11 (clinical isolate)): 2 µg/mL (≈ 1.38 µM)
- MIC ([1]; VISA, S. aureus AR0215 (VISA)): 2 µg/mL (≈ 1.38 µM)
- MIC ([1]; VISA, S. aureus AR0216 (VISA)): 4 µg/mL (≈ 2.76 µM)
- MIC ([1]; VISA, S. aureus AR0217 (VISA)): 2 µg/mL (≈ 1.38 µM)
- MIC ([1]; VISA, S. aureus AR0219 (VISA)): > 4 µg/mL
- MIC ([1]; VISA, S. aureus AR0225 (VISA)): 2 µg/mL (≈ 1.38 µM)
- MIC ([1]; VRSA, S. aureus VRS1 (VRSA)): > 4 µg/mL

Compound: H-GLFKVIKKLLKVI-NH2 [CIT-8]
- SYTOX Green fluorescence (membrane permeation) [2]: significantly increased fluorescence levels
- Histopathology of treated skin [3]: more intact epidermis, reduced numbers of PMN and MN (less inflammation), and no bacterial biofilm patches
- rT (HPLC retention time) [4]: 22.465 min
